Target: DGKα (Homo sapiens (Human), UniProt P23743)
Test: Human DGKα kinase activity inhibition assay (ADP-Glo)
Type: biochemical
Settings: recombinant full-length human DGKα, 55 μM ATP, 7 μM 1,2-dioleoyl-sn-glycerol, read-out: IC50 values of examples in in vitro human DGKa kinase activity inhibition assays
Experimental: Human DGKα Kinase Activity Inhibition Assay
Human DGKα inhibitory activity of compounds of the present invention was quantified employing the human DGKα kinase activity assay as described in the following paragraphs. In essence, the enzyme activity was measured by quantification of the adenosine-di-phosphate (ADP) generated as a co-product of the enzyme reaction via the “ADP-Glo™ Kinase Assay” kit from the company Promega. This detection system works as follows: In a first step the ATP not consumed in the kinase reaction is quantitatively converted to cAMP employing an adenylate cyclase (“ADP-Glo-reagent”), then the adenylate cyclase is stopped and the ADP generated in the kinase reaction converted to ATP, which subsequently generates in a luciferase-based reaction a glow-luminescence signal (“Kinase Detection Reagent”).
C-terminally FLAG-tagged, recombinant full-length human DGKα (expressed in baculovirus infected insect cells, purified using anti-Flag pulldown and size exclusion chromatography as described below, DGKa_hu_1) was used as enzyme. As substrate for the kinase 1,2-dioleoyl-sn-glycerol, reconstituted in octyl-β-D-glucopyranoside micelles, was used. […] Then 35 volumes of 50 mM MOPS buffer (pH 7.4) were added to yield a solution of 0.28 mM 1,2 dioleoyl-sn-glycerol and 200 mM […], which was aliquoted, flash-frozen in liquid nitrogen, and stored at −20° C. until use.
For the assay 50 nl of a 100-fold concentrated solution of the test compound in dimethyl sulfoxide (DMSO, Sigma) was pipetted into either a white 1536-well or a white low-volume 384-well microtiter plate (both Greiner Bio-One, Frickenhausen, Germany).

Chain of DGKα (P23743 other isoform, or with tags, fused parts or gaps): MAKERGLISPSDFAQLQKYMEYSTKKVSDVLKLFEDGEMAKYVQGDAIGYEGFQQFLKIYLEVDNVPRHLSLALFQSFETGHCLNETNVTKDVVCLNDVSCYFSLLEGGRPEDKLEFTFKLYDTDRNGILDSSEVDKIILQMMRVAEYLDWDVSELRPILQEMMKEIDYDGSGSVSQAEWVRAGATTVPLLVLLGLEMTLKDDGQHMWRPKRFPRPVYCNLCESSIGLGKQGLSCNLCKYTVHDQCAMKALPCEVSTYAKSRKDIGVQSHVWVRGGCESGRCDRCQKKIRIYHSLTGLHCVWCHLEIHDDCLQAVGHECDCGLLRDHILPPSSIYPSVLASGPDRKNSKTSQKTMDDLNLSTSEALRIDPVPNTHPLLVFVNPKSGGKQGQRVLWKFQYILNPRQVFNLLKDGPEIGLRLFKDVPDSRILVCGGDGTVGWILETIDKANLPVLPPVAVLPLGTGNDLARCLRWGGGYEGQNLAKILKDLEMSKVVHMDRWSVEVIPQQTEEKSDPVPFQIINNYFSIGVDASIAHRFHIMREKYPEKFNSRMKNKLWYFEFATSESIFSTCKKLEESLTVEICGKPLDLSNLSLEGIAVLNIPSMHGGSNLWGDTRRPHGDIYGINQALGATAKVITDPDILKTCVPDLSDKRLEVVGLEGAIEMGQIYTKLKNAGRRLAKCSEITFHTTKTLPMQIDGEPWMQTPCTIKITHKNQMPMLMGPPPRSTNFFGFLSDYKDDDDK

Compared with `Cn1c(=O)c(C#N)c(N2CCC(C)(c3nc4cc(S(C)(=O)=O)ccc4o3)CC2)c2ccccc21` [Example 25, 4-{4-[5-(methanesulfonyl)-1,3-benzoxazol-2-yl]-4-methylpiperidin-1-yl}-1-methyl-2-oxo-1,2-dihydroquinoline-3-carbonitrile], `COCc1ccc2nc(C3(C)CCN(c4c(C#N)c(=O)n(C)c5ccccc45)CC3)oc2c1` [Example 392, 4-{4-[6-(methoxymethyl)-1,3-benzoxazol-2-yl]-4-methylpiperidin-1-yl}-1-methyl-2-oxo-1,2-dihydroquinoline-3-carbonitrile] is 25-fold lower in IC50: 168 nM for the first, 6.7 nM for the second. The second is the more potent here.

First: Cc1ccc2oc(C3(C)CCN(c4c(C#N)c(=O)n(C)c5c(C6CC6)cccc45)CC3)nc2c1 [Example 272, 8-cyclopropyl-1-methyl-4-[4-methyl-4-(5-methyl-1,3-benzoxazol-2-yl)piperidin-1-yl]-2-oxo-1,2-dihydroquinoline-3-carbonitrile]
Second: Cc1ccc2oc(C3(C)CCN(c4c(C#N)c(=O)n(C)c5cc(C6COC6)ccc45)CC3)nc2c1 [Example 261, 1-methyl-4-[4-methyl-4-(5-methyl-1,3-benzoxazol-2-yl)piperidin-1-yl]-7-(oxetan-3-yl)-2-oxo-1,2-dihydroquinoline-3-carbonitrile]
The IC50 of the first is 3.2-fold higher: 113 nM for the first, 35 nM for the second. The second is the more potent here.

Going from `Cn1c(=O)c(C(N)=O)c(N2CCC(c3nc(-c4cccnc4)no3)CC2)c2ccccc21` [Example 475, 1-methyl-2-oxo-4-{4-[3-(pyridin-3-yl)-1,2,4-oxadiazol-5-yl]piperidin-1-yl}-1,2-dihydroquinoline-3-carboxamide] to `Cn1c(=O)c(C(N)=O)c(N2CCC(c3nc4ccccc4o3)CC2)c2ccc(C(F)(F)F)cc21` [Example 308, 4-[4-(1,3-benzoxazol-2-yl)piperidin-1-yl]-1-methyl-2-oxo-7-(trifluoromethyl)-1,2-dihydroquinoline-3-carboxamide], the IC50 falls from 224 nM to 6.4 nM (35-fold).

Going from `Cn1c(=O)c(C#N)c(N2CCC(F)(c3nc4ccccc4s3)CC2)c2ccccc21` [Example 16, 4-[4-(1,3-benzothiazol-2-yl)-4-fluoropiperidin-1-yl]-1-methyl-2-oxo-1,2-dihydroquinoline-3-carbonitrile] to `Cn1c(=O)c(C#N)c(N2CCC(C)(c3cc4ccccc4s3)CC2)c2ccccc21` [Example 342, 4-[4-(1-benzothiophen-2-yl)-4-methylpiperidin-1-yl]-1-methyl-2-oxo-1,2-dihydroquinoline-3-carbonitrile], the IC50 falls from 9.9 nM to 2.9 nM (3.4-fold). The second is the more potent here.

Compared with `Cc1cccc(-c2nnc(C3CCN(c4c(C#N)c(=O)n(C)c5ccc(Br)cc45)CC3)o2)c1` [Example 443, 6-bromo-1-methyl-4-{4-[5-(3-methylphenyl)-1,3,4-oxadiazol-2-yl]piperidin-1-yl}-2-oxo-1,2-dihydroquinoline-3-carbonitrile], `Cc1ccc2oc(C3CCN(c4c(C#N)c(=O)n(C)c5ccc(Br)cc45)CC3)nc2c1` [Example 396, 6-bromo-1-methyl-4-[4-(5-methyl-1,3-benzoxazol-2-yl)piperidin-1-yl]-2-oxo-1,2-dihydroquinoline-3-carbonitrile] is 10-fold lower in IC50: 9.1 nM for the first, 0.9 nM for the second. The second is the more potent here.

`COc1ccc2c(N3CCC(c4nc5ccccc5o4)CC3)c(C#N)c(=O)n(C)c2c1` [Example 243, 4-[4-(1,3-benzoxazol-2-yl)piperidin-1-yl]-7-methoxy-1-methyl-2-oxo-1,2-dihydroquinoline-3-carbonitrile] and `Cc1ccc2c(c1)c(N1CCC(c3nc4ccccc4o3)CC1)c(C#N)c(=O)n2C` [Example 165, 4-[4-(1,3-benzoxazol-2-yl)piperidin-1-yl]-1,6-dimethyl-2-oxo-1,2-dihydroquinoline-3-carbonitrile] are within 1.5-fold of each other in IC50: 3.5 nM for the first, 2.6 nM for the second.

First: Cc1ccc2oc(C3CCN(c4c(C(N)=O)c(=O)n(C)c5ccc(OCC(C)(F)F)cc45)CC3)nc2c1 [Example 503, 6-(2,2-difluoropropoxy)-1-methyl-4-[4-(5-methyl-1,3-benzoxazol-2-yl)piperidin-1-yl]-2-oxo-1,2-dihydroquinoline-3-carboxamide]
Second: Cc1ccc2oc(C3CCN(c4c(C(N)=O)c(=O)n(C)c5cc(N(C)CC#N)ccc45)CC3)nc2c1 [Example 500, 7-[(cyanomethyl)(methyl)amino]-1-methyl-4-[4-(5-methyl-1,3-benzoxazol-2-yl)piperidin-1-yl]-2-oxo-1,2-dihydroquinoline-3-carboxamide]
The IC50 of the first is 3800-fold higher: 2690 nM for the first, 0.7 nM for the second.

Compared with `Cc1cc2c(N3CCC(c4nc(-c5ccccc5C)no4)CC3)c(C#N)c(=O)n(C)c2cc1NCCO` [Example 559, 7-[(2-hydroxyethyl)amino]-1,6-dimethyl-4-{4-[3-(2-methylphenyl)-1,2,4-oxadiazol-5-yl]piperidin-1-yl}-2-oxo-1,2-dihydroquinoline-3-carbonitrile], `COc1ccc2c(c1)c(N1CCC(c3nc(-c4cccc(C)c4)no3)CC1)c(C#N)c(=O)n2C` [Example 436, 6-methoxy-1-methyl-4-{4-[3-(3-methylphenyl)-1,2,4-oxadiazol-5-yl]piperidin-1-yl}-2-oxo-1,2-dihydroquinoline-3-carbonitrile] is 19-fold higher in IC50: 1.7 nM for the first, 32 nM for the second.

First: Cc1nc2cc(C3CCN(c4c(C#N)c(=O)n(C)c5ccccc45)CC3)ccc2s1 [Example 346, 1-methyl-4-[4-(2-methyl-1,3-benzothiazol-5-yl)piperidin-1-yl]-2-oxo-1,2-dihydroquinoline-3-carbonitrile]
Second: Cn1c(=O)c(C#N)c(N2CCC(c3nc4ccc(C5CC5)cc4o3)CC2)c2ccccc21 [Example 395, 4-[4-(6-cyclopropyl-1,3-benzoxazol-2-yl)piperidin-1-yl]-1-methyl-2-oxo-1,2-dihydroquinoline-3-carbonitrile]
The IC50 of the first is 12-fold higher: 28 nM for the first, 2.4 nM for the second. The second is the more potent here.

Going from `Cc1ccc2oc(C3(C)CCN(c4c(C#N)c(=O)n(C)c5cc(OCC6(C#N)CC6)ccc45)CC3)nc2c1` [Example 251, 7-[(1-cyanocyclopropyl)methoxy]-1-methyl-4-[4-methyl-4-(5-methyl-1,3-benzoxazol-2-yl)piperidin-1-yl]-2-oxo-1,2-dihydroquinoline-3-carbonitrile] to `Cc1ccc2oc(C3(C)CCN(c4c(C#N)c(=O)n(C)c5ccc(OC6CCC6)cc45)CC3)nc2c1` [Example 278, 6-(cyclobutyloxy)-1-methyl-4-[4-methyl-4-(5-methyl-1,3-benzoxazol-2-yl)piperidin-1-yl]-2-oxo-1,2-dihydroquinoline-3-carbonitrile], the IC50 rises from 9.3 nM to 480 nM (52-fold). The first is the more potent here.

`COCCc1ccc2oc(C3CCN(c4c(C#N)c(=O)n(C)c5ccccc45)CC3)nc2c1` [Example 283, 4-{4-[5-(2-methoxyethyl)-1,3-benzoxazol-2-yl]piperidin-1-yl}-1-methyl-2-oxo-1,2-dihydroquinoline-3-carbonitrile] and `Cn1c(=O)c(C#N)c(N2CCC(c3nc4ccccc4o3)CC2)c2ccccc21` [Example 2, 4-[4-(1,3-benzoxazol-2-yl)piperidin-1-yl]-1-methyl-2-oxo-1,2-dihydroquinoline-3-carbonitrile] are within 1.5-fold of each other in IC50: 6.8 nM for the first, 6.4 nM for the second.

`Cn1c(=O)c(C#N)c(N2CCC(c3cccc4nccnc34)CC2)c2ccccc21` [Example 79, 1-methyl-2-oxo-4-[4-(quinoxalin-5-yl)piperidin-1-yl]-1,2-dihydroquinoline-3-carbonitrile] and `Cn1c(=O)c(C#N)c(N2CCC[C@H](c3ccccc3)CC2)c2cccc(F)c21` [Example 328, 8-fluoro-1-methyl-2-oxo-4-[(4S)-4-phenylazepan-1-yl]-1,2-dihydroquinoline-3-carbonitrile] are within 1.5-fold of each other in IC50: 104 nM for the first, 144 nM for the second.

Going from `Cc1ccc2oc(C3CCN(c4c(C(N)=O)c(=O)n(C)c5cc(N(C)C6COC6)ccc45)CC3)nc2c1` [Example 494, 1-methyl-4-[4-(5-methyl-1,3-benzoxazol-2-yl)piperidin-1-yl]-7-[methyl(oxetan-3-yl)amino]-2-oxo-1,2-dihydroquinoline-3-carboxamide] to `Cn1c(=O)c(C(N)=O)c(N2CCC(c3nc4ccccc4o3)CC2)c2ccc(N3CCCC3=O)cc21` [Example 318, 4-[4-(1,3-benzoxazol-2-yl)piperidin-1-yl]-1-methyl-2-oxo-7-(2-oxopyrrolidin-1-yl)-1,2-dihydroquinoline-3-carboxamide], the IC50 rises from 6.2 nM to 48 nM (7.7-fold).

Compared with `Cn1c(=O)c(C#N)c(N2CCC(c3nc4ccc(Cl)cc4o3)CC2)c2cccc(Br)c21` [Example 157, 8-bromo-4-[4-(6-chloro-1,3-benzoxazol-2-yl)piperidin-1-yl]-1-methyl-2-oxo-1,2-dihydroquinoline-3-carbonitrile], `COCc1ccc2c(c1)c(N1CCC(C)(c3nc4cc(C)ccc4o3)CC1)c(C#N)c(=O)n2C` [Example 213, 6-(methoxymethyl)-1-methyl-4-[4-methyl-4-(5-methyl-1,3-benzoxazol-2-yl)piperidin-1-yl]-2-oxo-1,2-dihydroquinoline-3-carbonitrile] is 6.5-fold lower in IC50: 252 nM for the first, 39 nM for the second.

With `CNC(=O)c1c(N2CCC(c3nc4ccccc4s3)CC2)c2ccccc2n(C)c1=O` [Example 145, 4-[4-(1,3-benzothiazol-2-yl)piperidin-1-yl]-N,1-dimethyl-2-oxo-1,2-dihydroquinoline-3-carboxamide] the IC50 was 41 nM.
